Read-outs that look alike come from different tables or passages of the source.
Columns and labels:
[1] = test system: H4 acetylation in human H460 tumors; assay: H4Ac immunoblot analysis of H460 tumors in nude mice; type: in vivo, nude mice (Balb/c); conditions: 100 mg/kg oral, immunoblot normalized to total histones (FIG. 5B)
Protocol: FIG. 5 Induction of MT3 and p21 in implanted human NSCLC H460 tumors in vivo in nude mice. Nude mice (Balb/c) bearing human H460 tumors were treated with 100 mg/kg MGCD0103 or 0.5% HEC (Vehicle) by oral administration. After 6 h or 24 h, three mice from each group were sacrificed, their tumors harvested and analyzed. Panel A: p21 and MT3 RNA levels quantified by conventional semi-quantitative PCR, normalized to β-actin. Panel B: H4Ac level detected by immunoblot analysis, normalized to total histones.
(§1) Human non-small cell lung carcinoma NSCLC-H460 cells (2 million) were injected subcutaneously in the animal flank and allowed to form solid tumors. Tumor fragments were passaged in animals for a minimum of three times before their use. Tumor fragments (about 30 mg) were implanted subcutaneously through a small surgical incision under general anesthesia to Balb/cA female nude mice (6-8 weeks old). Recipient animals were treated with either vehicle (0.1 N HCl) or MGCD0103 (2HBr salt, in 0.1 N HCl) 100 mg/kg orally. Tumors were harvested after one dose of either 6 hour or 24 hours post administration of vehicle or MGCD0103. Each experimental group contained 3 animals. Tumor tissues were deposited in RNAlater (Qiagen, Missisauga Ontario) for total RNA extraction.

[2] = test system: human colon HCT15 cells; assay: Microarray gene expression analysis, HCT15 cells in vitro; type: cell-based; conditions: HCT-15, HCT15 in vitro
Protocol: Human cancer cell lines were from American Type Culture Collection (Manassas, Va.) and were all cultured following the vendor's instructions.
(§2) Biological analysis was performed using Biointerpreter software.

[3] = test system: RPMI-8226 myeloma cells; assay: RT-PCR of MT3 transcription in RPMI-8226 cells; type: cell-based, human; conditions: 16 h, semi-quantitative RT-PCR (FIG. 2)
Protocol: (§3) RNA was extracted from 8×10^6 cells using the Qiagen RNeasy Mini kit (cat#74106, Qiagen, Missisauga Ont.) following the manufacturer's instructions. RT reaction was performed using the Expand Reverse Transcriptase kit from Roche (Cat#1 785 834 Roche Applied Biosciences, Laval, Que) with 1 μg total RNA together with 1 μl oligo(dT) primer (cat#y01212, Invitrogen-Canada, Burlington, Ont). cDNA was synthesized using an Eppendorf Mastercycler gradient PCR apparatus (Brinkmann Instruments Canada LTD., Mississauga, Ontario), using a two cycle protocol. For the 1st cycle reaction mixture (0.5 μl H2O, 4 μl of 5× Buffer, 2 μl DTT, 2 ul of 10 mM dNTPs, 0.5 μl RNAsin (cat#N211B, Promega, Fisher Scientific, Whitby, Ont.) and […] of the Expand Reverse Transcriptase (Cat#1785834, Roche, Laval, Quebec)) was incubated at 65° C. for 10 minutes and then set on ice. A second cycle was performed at 42° C. for 1 hour. The resulting cDNA products were kept at 4° C. until used.
One ul of the resulting cDNA was used for every amplification reaction with 18.9 ul H2O, 1.25 ul of 10 mM dNTPs, 0.5 ul of each primer pair, 2.5 ul of 10× Buffer. The PCR reaction was carried out in an Eppendorf Mastercycler gradient. The sequences of the primers used for the amplification of selected biomarkers, as well as the details of the PCR reaction cycles are featured below. […]

[4] = test system: human H460 tumors in mice; assay: Microarray gene expression analysis, implanted H460 tumors in vivo
Protocol: as §2, §1

[5] = test system: human colon cancer HCT15 cells; assay: RT-PCR of MT3 transcription in HCT15 cells; type: cell-based
Protocol: FIG. 1. […] HCT15 cells were treated with HDAC inhibitors or indicated compounds for 16 hours before total RNAs are isolated. RNA levels of MT3 were measured by real-time RT-PCR and are subsequently normalized against β-actin.
Colon cancer HCT15 cells were exposed to 1 μM MGCD0103 for various amounts of time, and MT3 RNA levels were monitored by conventional semi-quantitative RT-PCR. Maximal induction is achieved between 8 h and 24 h of exposure and maintained through 72 h.
as §3
One ul of the resulting cDNA was used for every amplification reaction with 18.9 ul H2O, 1.25 ul of 10 mM dNTPs, 0.5 ul of each primer pair, 2.5 ul of 10× Buffer. The PCR reaction was carried out in an Eppendorf Mastercycler gradient. The sequences of the primers used for the amplification of selected biomarkers, as well as the details of the PCR reaction cycles are featured below. All buffers came from Expand Long Template PCR system (Roche, Laval, Quebec, Cat#11681842001). All primers were synthesized by Invitrogen (Invitrogen-Canada, Burlington, Ont.)
Analysis of transcripts was performed using STORM 860 (Amersham Biosciences, Baie d'Urfe, Qubec). Transcription of genes was normalized to transcription of actin, which was performed in the same RT-PCR reaction. The relative expression level of gense was normalized to baseline signals.
Quantitative PCR with SYBR Green I detection with Mastercycler® ep realplex (Eppendorf) was performed using LightCycler® 480 SYBR Green I Master (Roche Diagnostics). SYBR Green I assays were performed with 600 nM primers. All other reaction conditions were as described by the manufacturer. Amplification conditions were 5 minutes of initial denaturation at 95° C., followed by 40 cycles of each 15 seconds at 95° C., 15 seconds at 63.4° C., 20 seconds at 68° C., a melting curve from 60° C. to 95° C. was recorded. Quantification was performed using Pfaffl method, a relative quantification method in real-time PCR (Nucleic Acids Research 2001 29:2002-2007). Primers were synthesized by Invitrogen (Invitrogen-Canada, Burlington, Ont.).

Nc1ccccc1NC(=O)c1ccc(CNc2nccc(-c3cccnc3)n2)cc1 [MGCD0103]
H4 acetylation in tumors [1]: detectable only after 6 h of treatment
fold induction at 1 µM ([2]; probe A_23_P16523, read-out: Fold Induction of GDF15 transcription): 4.18
fold induction at 1 µM ([2]; probe A_23_P41344, read-out: Fold Induction of EREG transcription): 4.62
fold induction at 1 µM ([2]; probe A_23_P52336, read-out: Fold Induction of UNC5B transcription): 5.7
fold induction at 1 µM ([2]; probe A_23_P94754, read-out: Fold Induction of TNFSF15 transcription): 4.11
fold induction at 1 µM ([2]; probe A_23_P114947, read-out: Fold Induction of RGS2 transcription): 2.75
fold induction at 1 µM ([2]; probe A_23_P142506, read-out: Fold Induction of GADD45B transcription): 3.1
fold induction at 1 µM ([2]; probe A_23_P149019, read-out: Fold Induction of BAI2 transcription): 5.13
fold induction at 1 µM ([2]; probe A_23_P151046, read-out: Fold Induction of KLRC1 transcription): 9.29
fold induction at 1 µM ([2]; probe A_23_P259071, read-out: Fold Induction of AREG transcription): 9.39
fold induction at 1 µM ([2]; probe A_23_P315273, read-out: Fold Induction of MT3 transcription): 7.65
fold induction at 1 µM ([2]; probe A_24_P5856, read-out: Fold Induction of TNFSF9 transcription): 2.96
fold induction at 1 µM ([2]; probe A_24_P217520, read-out: Fold Induction of EREG transcription): 4.14
Dose-dependent induction of MT3 transcription [3]: Dose-dependent induction
Fold induction of CDKN1C transcription [4]: 3.1 fold
Fold induction of CXCL14 transcription [4]: 3.4 fold
Fold induction of IER3 transcription [4]: 3.2 fold
Fold induction of KRTHA2 transcription [4]: 2.6 fold
Fold induction of MT3 transcription [4]: 2.2 fold
Fold induction of PROM1 transcription [4]: 3.1 fold
Fold induction of SNIP transcription [4]: 2.8 fold
Fold induction of SOD2 transcription [4]: 2.8 fold
Fold induction of TNF transcription [4]: 2.8 fold
Time-dependent induction of MT3 transcription ([5]; 1 uM (FIG. 3)): Time-dependent induction
time through which maximal MT3 induction is maintained ([5]; 1 uM (FIG. 3)): ≥ 72 h
Dose-dependent induction of MT3 transcription ([5]; 16 h, semi-quantitative RT-PCR (FIG. 2)): Dose-dependent induction
Induction of transcription of MT3 ([5]; 16 hours, real-time RT-PCR normalized against beta-actin (FIG. 1)): induced

From US20070292351A1, “Assay for efficacy of histone deacetylase inhibitors” (Methylgene, Inc., priority 2006, published 2007)
